{"source": "patent US4479942A", "about": "“Tetrahydrofurnancarboxylic acid derivatives, processes for preparation thereof and pharmaceutical compositions thereof” (Fujisawa Pharmaceutical Co., Ltd., priority 1981, dated 1984)", "key": {"Candida albicans OUT6004": {"test_system": "Candida albicans OUT6004", "assay": "Antimicrobial activity test (in vitro), minimal inhibitory concentration against Candida, pulp assay method", "type": "cell-based", "conditions": "malt agar", "excerpt": "Antimicrobial activity test (in vitro):\nMinimal inhibitory concentration (MIC) against Candida: (Candida albicans OUT6004)\nMethod: Pulp assay method"}, "Candida albicans FP-614": {"test_system": "Candida albicans FP-614", "assay": "Minimal inhibitory concentration against Candida albicans, agar dilution method (FP-614)", "type": "cell-based", "conditions": "FP614, malt agar", "excerpt": "(§1) Antimicrobial activities of the compound in Example 98 [1-(6-amino-9H-purin-9-yl)-1,3-dideoxy-3-(O-methyl-L-tyrosylamino)-β- D-ribofuranuronic acid dihydrochloride monohydrate] against some species of Candida.\n(§2) Minimal inhibitory concentration (MIC) against Candida albicans:\n(§3) Method: Agar dilution method"}, "Candida albicans FP-616": {"test_system": "Candida albicans FP-616", "assay": "Minimal inhibitory concentration against Candida albicans, agar dilution method (FP-616)", "type": "cell-based", "conditions": "FP616, malt agar", "excerpt": "as §1, §2, §3"}, "Candida albicans FP-618": {"test_system": "Candida albicans FP-618", "assay": "Minimal inhibitory concentration against Candida albicans, agar dilution method (FP-618)", "type": "cell-based", "conditions": "FP618, malt agar", "excerpt": "as §1, §2, §3"}, "Candida albicans FP-620": {"test_system": "Candida albicans FP-620", "assay": "Minimal inhibitory concentration against Candida albicans, agar dilution method (FP-620)", "type": "cell-based", "conditions": "FP620, malt agar", "excerpt": "as §1, §2, §3"}, "Candida albicans FP-622": {"test_system": "Candida albicans FP-622", "assay": "Minimal inhibitory concentration against Candida albicans, agar dilution method (FP-622)", "type": "cell-based", "conditions": "FP622, malt agar", "excerpt": "as §1, §2, §3"}, "Candida albicans FP-633 [1]": {"test_system": "Candida albicans FP-633", "assay": "Minimal inhibitory concentration against Candida albicans, agar dilution method (FP-633)", "type": "cell-based", "conditions": "FP633, malt agar", "excerpt": "as §1, §2, §3"}, "Candida albicans FP-633 [2]": {"test_system": "Candida albicans FP-633", "assay": "Protective efficacy in experimental infection in mice", "type": "in vivo, mice (ddY-strains)", "conditions": "one hour after i.v. infection, one week after infection", "excerpt": "Protective efficacy in experimental infection in mice:\nIn determining the protective efficacy against experimental infections of Candida in mice, the compound in Example 98 [1-(6-amino-9H-purin-9-yl)-1,3-dideoxy-3-(O-methyl-L-tyrosylamino)-β- D-ribofuranuronic acid dihydrochloride monohydrate] was suspended and diluted in sterile water to provide three concentrations of the drug for testing ddY-strains of mice aged 5 weeks and averaging 20 g in weight. Mice were used in groups of 5 mice each. One hour after the intravenous injection of 3.0×10^6 of Candida albicans FP-633 cells to each mouse, the drug solutions were administered subcutaneously or orally at the level mentioned below respectively.\nOne week after the infection, the test was considered complete and survival records of that day were made."}, "[3]": {"assay": "Toxicity, intraperitoneal administration into mice", "type": "in vivo", "conditions": "more than 1,000 mg/kg"}, "[4]": {"assay": "Solubilities to various solvents"}}, "data": [{"smiles": "Nc1ncnc2c1ncn2[C@@H]1O[C@H](C(=O)O)[C@@H](NC(=O)C(N)Cc2ccc([N+](=O)[O-])cc2)[C@H]1O", "note": "(mixture of isomers) [Example 73, 1-(6-Amino-9H-purin-9-yl)-1,3-dideoxy-3-[β-(4-nitrophenyl)-D,L-alanylamino]-β-D-ribofuranuronic acid]", "values": [{"measurement": "MIC", "setting": "Candida albicans OUT6004", "value": 31, "unit": "µg/mL"}]}, {"smiles": "Nc1ncnc2c1ncn2[C@@H]1O[C@H](C(=O)O)[C@@H](NC(=O)[C@@H](N)Cc2ccccc2)[C@H]1O", "note": "[Example 39, 1-(6-amino-9H-purin-9-yl)-1,3-dideoxy-3-(L-phenylalanylamino)-β-D-ribofuranuronic acid]", "values": [{"measurement": "MIC", "setting": "Candida albicans OUT6004", "value": 31, "unit": "µg/mL"}]}, {"smiles": "COc1ccc(C[C@H](N)C(=O)N[C@H]2[C@@H](O)[C@H](n3cnc4c(N)ncnc43)O[C@@H]2C(=O)NCC(=O)O)cc1", "note": "[Example 55, N-Carboxymethyl-1-(6-amino-9H-purin-9-yl)-1,3-dideoxy-3-(O-methyl-L-tyrosylamino)-β-D-ribofuranuronamide]", "values": [{"measurement": "MIC", "setting": "Candida albicans OUT6004", "value": 31, "unit": "µg/mL"}]}, {"smiles": "COc1ccc(C[C@H](N)C(=O)N[C@H]2[C@@H](O)[C@H](n3cnc4c(N)ncnc43)O[C@@H]2C(=O)O)cc1.Cl.Cl.O", "note": "[Example 98, 1-(6-Amino-9H-purin-9-yl)-1,3-dideoxy-3-(O-methyl-L-tyrosylamino)-β-D-ribofuranuronic acid dihydrochloride monohydrate]", "values": [{"measurement": "MIC", "setting": "Candida albicans OUT6004", "value": 16, "unit": "µg/mL"}, {"measurement": "MIC", "setting": "Candida albicans FP-614", "value": 0.8, "unit": "µg/mL"}, {"measurement": "MIC", "setting": "Candida albicans FP-616", "value": 0.2, "unit": "µg/mL"}, {"measurement": "MIC", "setting": "Candida albicans FP-618", "value": 0.8, "unit": "µg/mL"}, {"measurement": "MIC", "setting": "Candida albicans FP-620", "value": 0.2, "unit": "µg/mL"}, {"measurement": "MIC", "setting": "Candida albicans FP-622", "value": 3.1, "unit": "µg/mL"}, {"measurement": "MIC", "setting": "Candida albicans FP-633 [1]", "value": 1.6, "unit": "µg/mL"}, {"measurement": "Survival/infected", "setting": "Candida albicans FP-633 [2]; oral, 10 mg/kg", "value": "1/5"}, {"measurement": "Survival/infected", "setting": "Candida albicans FP-633 [2]; oral, 30 mg/kg", "value": "3/5"}, {"measurement": "Survival/infected", "setting": "Candida albicans FP-633 [2]; subcutaneous, 5 mg/kg", "value": "1/5"}, {"measurement": "Survival/infected", "setting": "Candida albicans FP-633 [2]; subcutaneous, 15 mg/kg", "value": "4/5"}, {"measurement": "Toxic symptom", "setting": "[3]", "value": "did not result in any toxic symtom"}, {"measurement": "Solubility", "setting": "[4]; acetone", "value": "Insoluble"}, {"measurement": "Solubility", "setting": "[4]; chloroform", "value": "Insoluble"}, {"measurement": "Solubility", "setting": "[4]; ethyl acetate", "value": "Insoluble"}, {"measurement": "Solubility", "setting": "[4]; methanol", "value": "Slightly soluble"}, {"measurement": "Solubility", "setting": "[4]; water", "value": "Slightly soluble"}]}]}
